The target of one experiment is T1, MAGL (Mus musculus, UniProt O35678).
T1 construct: mouse brain membrane fraction or cell lysates for mouse assays; from tissue
T1 sequence (O35678 1-303): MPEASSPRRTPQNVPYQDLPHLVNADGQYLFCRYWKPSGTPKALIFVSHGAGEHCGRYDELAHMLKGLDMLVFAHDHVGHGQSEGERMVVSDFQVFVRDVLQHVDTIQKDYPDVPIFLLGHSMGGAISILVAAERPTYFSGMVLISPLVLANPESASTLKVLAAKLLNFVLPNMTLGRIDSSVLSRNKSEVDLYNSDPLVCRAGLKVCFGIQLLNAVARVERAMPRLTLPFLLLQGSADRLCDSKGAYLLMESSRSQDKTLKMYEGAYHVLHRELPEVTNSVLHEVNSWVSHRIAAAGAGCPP
Briefly: In vitro competitive activity-based protein profiling, mouse MAGL. The class given is biochemical. The settings on record: for inhibition at 1 µM: read-out: MAGL % inh. 1 μM (mouse). The procedure, abridged: (§1)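 Activity measured as fluorescent gel-band intensity of MAGL and FAAH after SDS-PAGE. Before labelling with FP-Rh or HT-01 (30 min, 37 °C), proteomes at 1.0 mg/mL (mouse brain membrane or lysates; human prefrontal cortex or cell membranes) were exposed to varying inhibitor concentrations for 30 min at 37 °C.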

The next experiment has as its target T2, FAAH (Mus musculus, UniProt O08914).
T2 construct: mouse brain membrane fraction or cell lysates for mouse assays; from tissue
T2 sequence (O08914 1-579): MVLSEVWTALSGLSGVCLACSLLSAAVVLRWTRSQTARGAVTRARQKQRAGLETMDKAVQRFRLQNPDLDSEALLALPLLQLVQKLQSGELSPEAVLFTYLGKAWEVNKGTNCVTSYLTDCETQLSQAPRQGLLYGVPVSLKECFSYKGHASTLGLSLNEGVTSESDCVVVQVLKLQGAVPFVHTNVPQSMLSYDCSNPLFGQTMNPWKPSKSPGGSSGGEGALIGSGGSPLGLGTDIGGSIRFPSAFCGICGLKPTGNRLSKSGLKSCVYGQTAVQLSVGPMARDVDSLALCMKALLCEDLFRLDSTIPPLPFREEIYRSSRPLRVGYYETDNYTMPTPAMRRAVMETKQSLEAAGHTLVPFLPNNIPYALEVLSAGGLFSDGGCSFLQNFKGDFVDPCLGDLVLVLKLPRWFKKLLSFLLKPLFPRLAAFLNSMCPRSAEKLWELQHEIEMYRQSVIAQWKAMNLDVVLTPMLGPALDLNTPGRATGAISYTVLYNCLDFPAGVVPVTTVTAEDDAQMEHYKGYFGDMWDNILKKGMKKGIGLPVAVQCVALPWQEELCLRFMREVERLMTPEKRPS
Briefly: In vitro competitive activity-based protein profiling, mouse FAAH. Format: biochemical. The following applies: for inhibition at 1 µM: read-out: FAAH % inh. 1 μM (mouse). In short, it runs like this: as §1

pIC50: −log10 of the molar value. Bounds are passed on as bounds.

Take `CN(Cc1cccc(C(F)(F)F)c1)[C@H]1C[C@@H]2CN(C(=O)n3cc(Cl)cn3)C[C@@H]2C1` [Example 83, (4-chloro-1H-pyrazol-1-yl)(trans-5-(methyl(3-(trifluoromethyl)benzyl)amino)hexahydrocyclopenta[c]pyrrol-2(1H)-yl)methanone]: at MAGL, the pIC50 (commonly the negative decadic logarithm of the IC50, by convention in mol/L) was not below 7.00 and the inhibition at 1 µM was not below 75%. Also, at FAAH, the pIC50 is not below 7.00 and the inhibition at 1 µM is not below 75%.

Turning to `O=C(c1cnn(C(=O)N2CC3CN(Cc4cc(Cl)ccc4Cl)CC3C2)c1)N1CCOCC1` (centres unmarked) [Example 5, (5-(2,5-dichlorobenzyl)hexahydropyrrolo[3,4-c]pyrrol-2(1H)-yl)(4-(morpholine-4-carbonyl)-1H-pyrazol-1-yl)methanone], the inhibition at 1 µM on MAGL and at FAAH was not below 75% in each case.

`COc1ccc(CN2CC3CN(C(=O)n4cc(C(F)(F)F)cn4)CC3C2)cc1` (centres unmarked) [Example 148, (5-(4-methoxybenzyl)hexahydropyrrolo[3,4-c]pyrrol-2(1H)-yl)(4-(trifluoromethyl)-1H-pyrazol-1-yl)methanone]: the values for the pIC50 at MAGL and at FAAH were 6.00 to 7.00 and not below 7.00, respectively. Moreover, the inhibition at 1 µM on MAGL and on FAAH was not below 75% throughout.

Turning to `CN(Cc1ccccc1Cl)[C@H]1C[C@@H]2CN(C(=O)n3cc(C(=O)N4CCN(C5CC5)CC4)cn3)C[C@@H]2C1` [Example 95, (trans-5-((2-chlorobenzyl)(methyl)amino)hexahydrocyclopenta[c]pyrrol-2(1H)-yl)(4-(4-cyclopropylpiperazine-1-carbonyl)-1H-pyrazol-1-yl)methanone], the inhibition at 1 µM was not below 75% at MAGL and 0 to 25% at FAAH.

In the case of `O=C(N1C[C@H]2C[C@@H](NCc3ccccc3Cl)C[C@H]2C1)n1cc(Cl)cn1` [Example 61, (4-chloro-1H-pyrazol-1-yl)(cis-5-((2-chlorobenzyl)amino)hexahydrocyclopenta[c]pyrrol-2(1H)-yl)methanone], on MAGL, the pIC50 is 6.00 to 7.00 and the inhibition at 1 µM is not below 75%. Moreover, at FAAH, the pIC50 was 6.00 to 7.00 and the inhibition at 1 µM is not below 75%.

Turning to `CC(C)c1ccc(CN2CC3CN(C(=O)n4cc(Cl)cn4)CC3C2)c(N2CCOCC2)c1` (centres unmarked) [Example 106, (4-chloro-1H-pyrazol-1-yl)(5-(4-isopropyl-2-morpholinobenzyl)hexahydropyrrolo[3,4-c]pyrrol-2(1H)-yl)methanone], at MAGL, the pIC50 was not below 7.00 and the inhibition at 1 µM was not below 75%. Moreover, on FAAH, the pIC50 was 5.00 to 6.00 and the inhibition at 1 µM fell in the range of 50 to 75%.

Consider `O=C(N1CC2CN(Cc3ccccc3Cl)CC2C1)n1cc(C(F)(F)F)cn1` (centres unmarked) [Example 151, (5-(2-chlorobenzyl)hexahydropyrrolo[3,4-c]pyrrol-2(1H)-yl)(4-(trifluoromethyl)-1H-pyrazol-1-yl)methanone], for which, at MAGL, the pIC50 was not below 7.00 and the inhibition at 1 µM is not below 75%. Further, at FAAH, the pIC50 is not below 7.00 and the inhibition at 1 µM was not below 75%.

For the molecule `O=C(c1cnn(C(=O)N2CCC3(CCN(Cc4cc(Cl)ccc4Cl)C3)C2)c1)N1CCN(C2CC2)CC1` (centres unmarked) [Example 30, (4-cyclopropylpiperazin-1-yl)(1-(7-(2,5-dichlorobenzyl)-2,7-diazaspiro[4.4]nonane-2-carbonyl)-1H-pyrazol-4-yl)methanone], the inhibition at 1 µM at MAGL and at FAAH was not below 75% throughout.

Take `O=C(N1CCC2(CCN(Cc3ccc(Cl)cc3)C2)C1)n1cc(Cl)cn1` (centres unmarked) [Example 115, (4-chloro-1H-pyrazol-1-yl)(7-(4-chlorobenzyl)-2,7-daizaspiro[4.4]nonan-2-yl)methanone]: on MAGL, the pIC50 was 6.00 to 7.00 and the inhibition at 1 µM is not below 75%. Moreover, at FAAH, the pIC50 was 6.00 to 7.00 and the inhibition at 1 µM was not below 75%.

Take `O=C(N1CC2CN(Cc3cccc(N4CCOCC4)c3)CC2C1)n1cc(C(F)(F)F)cn1` (centres unmarked) [Example 145, (5-(3-morpholinobenzyl)hexahydropyrrolo[3,4-c]pyrrol-2(1H)-yl)(4-(trifluoromethyl)-1H-pyrazol-1-yl)methanone]: on MAGL, the pIC50 was not below 7.00 and the inhibition at 1 µM was not below 75%. At FAAH, the pIC50 was not below 7.00 and the inhibition at 1 µM is not below 75%.

On to `CN(Cc1ccc(C(F)(F)F)c(N2CCCC2)c1)[C@@H]1C[C@@H]2CN(C(=O)n3cc(C(N)=O)cn3)C[C@@H]2C1` [Example 221, 1-(cis-5-(methyl(3-(pyrrolidin-1-yl)-4-(trifluoromethyl)benzyl)amino)octahydrocyclopenta[c]pyrrole-2-carbonyl)-1H-pyrazole-4-carboxamide], for which the inhibition at 1 µM at MAGL and on FAAH was not below 75% in each case.

As for `CN(Cc1ccc(C(F)(F)F)cc1)[C@@H]1C[C@@H]2CN(C(=O)n3cc(C(=O)N4CCN(C5CC5)CC4)cn3)C[C@@H]2C1` [Example 98, (4-cyclopropylpiperazin-1-yl)(1-(cis-5-(methyl(4-(trifluoromethyl)benzyl)amino)octahydrocyclopenta[c]pyrrole-2-carbonyl)-1H-pyrazol-4-yl)methanone], the inhibition at 1 µM at MAGL is not below 75%; at FAAH, 25 to 50%.

Consider `CC(=O)N1CCN(c2cc(Cl)ccc2CN2CC3CN(C(=O)n4cc(Cl)cn4)CC3C2)CC1` (centres unmarked) [Example 102, 1-(4-(5-chloro-2-((5-(4-chloro-1H-pyrazole-1-carbonyl)hexahydropyrrolo[3,4-c]pyrrol-2(1H)-yl)methyl)phenyl)piperazin-1-yl)ethan-1-one], for which the inhibition at 1 µM at MAGL and at FAAH was not below 75% each time.

On to `O=C(N1C[C@H]2C[C@@H](NCc3ccc(Cl)cc3)C[C@H]2C1)n1cc(Cl)cn1` [Example 71, (4-chloro-1H-pyrazol-1-yl)(cis-5-((4-chlorobenzyl)amino)hexahydrocyclopenta[c]pyrrol-2(1H)-yl)methanone], for which, on MAGL, the pIC50 was 6.00 to 7.00 and the inhibition at 1 µM is not below 75%. In addition, on FAAH, the pIC50 is 6.00 to 7.00 and the inhibition at 1 µM was not below 75%.

On to `NC(=O)c1cnn(C(=O)N2CCC3(CCN(Cc4ccc(N5CCCC5)cc4C(F)(F)F)C3)C2)c1` (centres unmarked) [Example 203, 1-(7-(4-(pyrrolidin-1-yl)-2-(trifluoromethyl)benzyl)-2,7-diazaspiro[4.4]nonane-2-carbonyl)-1H-pyrazole-4-carboxamide], for which the inhibition at 1 µM at MAGL and at FAAH was not below 75% each time.

Turning to `O=C(N1CCC2(CCN(Cc3ccc(CN4CCOCC4)cc3)C2)C1)n1cc(Cl)cn1` (centres unmarked) [Example 129, (4-chloro-1H-pyrazol-1-yl)(7-(4-(morpholinomethyl)benzyl)-2,7-diazaspiro[4.4]nonan-2-yl)methanone], the inhibition at 1 µM on MAGL was 25 to 50%; at FAAH it was 50 to 75%.

For the molecule `O=C(N1CCC2(CCN(Cc3cccc(N4CCCC4)c3)C2)C1)n1cc(C(F)(F)F)cn1` (centres unmarked) [Example 174, (7-(3-(pyrrolidin-1-yl)benzyl)-2,7-diazaspiro[4.4]nonan-2-yl)(4-(trifluoromethyl)-1H-pyrazol-1-yl)methanone], the inhibition at 1 µM at MAGL and on FAAH was not below 75% throughout.
